This passage reports viability results from paper PMC12040169 (PLOS Biology, 2025).

The data set is described as follows: in vitro. Particulars: human, hela cells, % viability.
Usually viability stands for a read-out of living cells in per cent, often relative to untreated cells. On to `COCc1cccc(-c2nccnc2OCc2ccccn2)c1` [CBK106953], for which the viability at 28.5 h, 10 µM came to 96%.
To `Cc1ccc(C)c(C2CCCN2C(=O)c2ccc(=O)n(CC(=O)N(C)c3ccccc3)c2)c1` (stereo not drawn) [CBK285654] belongs 97.5%; to `c1ccc2c(CCNc3nccnc3-c3ccoc3)c[nH]c2c1` [CBK036743], 102%; to `Cc1ccc(OC(=O)c2ccc(S(=O)(=O)N(C)C)cc2)c(-n2nc3ccccc3n2)c1` [CBK267805], 81.2%.
As for `O=C(c1ccsc1)N1CCC2(CC1)CN(Cc1ccccc1)CC(c1ccccc1)O2` (stereo not drawn) [CBK286438], the figure is 94.4%; as for `N#Cc1c(NC(=O)c2cccc(S(=O)(=O)Nc3ccc(C(=O)O)cc3)c2)sc2c1CCCC2` [CBK266762], 106%.
Regarding `CCc1c(C)sc(NC(=O)c2ccc(Br)o2)c1C#N` [CBK021662], the viability at 28.5 h, 10 µM amounted to 83.6%.
`C=CCn1cc(CN2CCCC(O)(c3ccc(F)cc3)CC2)c(C)n1` (stereo not drawn) [CBK285144]: the viability at 28.5 h, 10 µM was found to be 92%.
With `COc1ccc2[nH]c3c(c2c1)CCNC31CCN(C(=O)COc2ccccc2)C1` (stereo not drawn) [CBK061661], the viability at 28.5 h, 10 µM is 88.8%.
To `CC(Oc1cccc(Cl)c1)c1nc(-c2cccs2)no1` (stereo not drawn) [CBK293984] belongs 90.8%.
As for `O=S(=O)(NC1CCCCC1)c1ccc(Cl)cc1I` [CBK057574], the figure is 80.8%; as for `CCn1cc(CN2CCC(Oc3cc(C)ccc3F)(C(=O)O)CC2)cn1` [CBK306644], 96.1%.
As for `N=C(SC1CC(=O)N(c2ccc(C(=O)O)cc2)C1=O)N1N=C(c2ccccc2)CC1c1ccccc1` (stereo not drawn) [CBK262446], the figure is 90.9%; as for `Clc1ccc(/C=N/Nc2nnn[nH]2)c(Cl)c1` [CBK262034], 98%; as for `CCn1c2cc(C)sc2c2cnn(CCN3CCCC3)c(=O)c21` [CBK284151], 99.7%.
As for `O=C(NC1CC2(CCCC2)Oc2ccccc21)C1CCOC1` (stereo not drawn) [CBK283802], the viability at 28.5 h, 10 µM was 84.3%.
As for `Cc1nc(C)c(C(=O)C2=C(O)C(=O)N(CCCN3CCOCC3)C2c2ccncc2)s1` (stereo not drawn) [CBK235187], the figure is 97.3%.
Consider `C[C@@H]1CN(C(=O)c2cncn2C)C[C@H](C)O1` [CBK200370], for which the viability at 28.5 h, 10 µM came out at 90.3%.
As for `CN(C)C(CNc1nccnc1-c1ccccc1F)c1cccnc1` (stereo not drawn) [CBK037290], the figure is 101%.
To `CC(C)(C)Nc1c(C2CCN(C(=O)C3CC3)CC2)nc2ccccn12` [CBK284787] belongs 104%; to `N#Cc1nc(COc2cccc(Cl)c2)oc1NCc1ccncc1` [CBK266447], 95.7%; to `O=C1c2ccccc2-c2onc3c(NCc4ccccc4)cc(Nc4ccccc4)c1c23` [CBK261979], 84%.
`O=C(NCCn1nc(-c2cccs2)oc1=O)C1CCCC1` [CBK282345]: the viability at 28.5 h, 10 µM turned out to be 105%.
`CCC(Cc1ccccc1C)c1cc(O)c(C(c2ccccc2)C2CC2)c(=O)o1` (stereo not drawn) [CBK016783]: the viability at 28.5 h, 10 µM was found to be 98.3%.
As for `OC[C@H]1OCC[C@H]1O` [CBK201263], the figure is 113%.
As for `O=C(O)/C=C/c1cccc(-c2cnc(N3CCOCC3)c3nccn23)c1` [CBK091263], the figure is 104%; as for `O=C(CCc1ccncc1)N1CCCCC1CN1CCCCCC1` (stereo not drawn) [CBK282102], 99.6%.
To `O=C(CCCOc1ccccc1)N1CCN(c2cccc(Cl)c2)CC1` [CBK304354] belongs 107%.
For `COc1ccc(CCC(=O)N2CCC(N(C)Cc3ccc(-c4ccc(S(C)(=O)=O)cc4)nc3)CC2)cc1Cl` [CBK164102T], the viability at 28.5 h, 10 µM was determined as 86.6%.
To `CC(=O)Nc1ccc(-c2cccc(COC3CCN(C(=O)Cc4ccc(C#N)cc4)CC3)c2)cc1` [CBK149495] belongs 101%; to `O=C(Nc1cccc2ccccc12)O[C@@H]1CO[C@H]2[C@@H]1OC[C@@H]2NC(=O)c1cccs1` [CBK289468], 103%.
To `O=C(Cc1c[nH]c2ccccc12)NC(Cc1ccccc1)C(=O)O` (stereo not drawn) [CBK286770] belongs 120%; to `CC(=O)Nc1cccc(-n2nnnc2SCc2noc(C)n2)c1` [CBK304599], 90.9%; to `O=C(Nc1ccc2oc(-c3ccccc3)nc2c1)C1CCCO1` (stereo not drawn) [CBK107724], 84.1%.
In the case of `O=C1C(C2CCN(Cc3ccc4ncccc4c3)CC2)CC=CCN1Cc1ccccc1` (stereo not drawn) [CBK286269], the viability at 28.5 h, 10 µM was determined as 108%.
As for `CCCSc1cc(=O)oc2ccccc12` [CBK017493], the figure is 87.3%; as for `OC(CNCc1ccc2c(c1)OCO2)CSc1ccccc1` (stereo not drawn) [CBK074684], 101%.
To `CC(=O)c1cc(C(=O)N2CCC(O)(c3cccc(C)c3)CC2)cs1` [CBK282531] belongs 92.8%; to `O=C1NCC2(CCN(Cc3ccccc3)CC2)Oc2ccccc21` [CBK285323], 91.8%.
To `COC(=O)[C@H]1CN(C(=O)c2scnc2C)C[C@@H]1c1ccc(F)cc1` [CBK283520] belongs 104%.
As for `CS(=O)(=O)c1ccc(-c2ccc3c(c2)OCCN(C2CCN(C(=O)CC(F)(F)F)CC2)C3)cc1` [CBK169260], the viability at 28.5 h, 10 µM was 90.8%.
To `CN(Cc1nccn1C)c1nccc(N2CCN[C@H]3CS(=O)(=O)C[C@H]32)n1` [CBK307394] belongs 84.8%.
With `CN1C(=O)c2ccccc2C(=O)[C@@]2(C)CN(C(=O)C3CC3)C[C@@H]12` [CBK284569], the viability at 28.5 h, 10 µM was found to be 87.3%.
To `CCOC(=O)CCNC(=O)c1cncc(-c2ccc(C(=O)N3CCOCC3)cc2)c1` [CBK158645] belongs 92.6%.
As to `CCOC(=O)c1cn[nH]c1N` [CBK175217], the viability at 28.5 h, 10 µM turned out to be 89.4%.
As for `C[C@@H](Nc1nc(-c2ccco2)cnc1N)c1ccccc1` [CBK063737], the figure is 108%.
To `O=C(/C=C/c1cccnc1)NCc1ccc(OC2CCNCC2)cc1` [CBK038945T] belongs 88.7%; to `COc1ccccc1NS(=O)(=O)c1ccc(N2C[C@@H](C)N[C@@H](C)C2)c2ccccc12` [CBK200012C], 85.3%.
As for `CC1SC(c2cc3ccccc3o2)N(c2ccc(F)cc2F)C1=O` (stereo not drawn) [CBK006917], the figure is 107%; as for `CCOCCn1nc(C)cc1C(=O)NC(CC)c1cn2cccnc2n1` (stereo not drawn) [CBK307377], 79%; as for `CC(=O)Nc1ccc(C(=O)N2CCCC2c2cccc(Cc3ccc(Cl)cc3)n2)cc1` (stereo not drawn) [CBK286144], 110%.
For the compound `COc1ccc(C2NCCc3c2[nH]c2ccccc32)cc1CSc1nc2ccccc2s1` (stereo not drawn) [CBK264303C], the viability at 28.5 h, 10 µM amounted to 96.8%.
To `Cc1ccc(-c2c[nH]c([C@@H]3COCCN3Cc3c[nH]c4ccccc34)n2)cc1` [CBK289308] belongs 106%.
As for `CC(=O)N1CCc2cc(C(=O)CN3CCOCC3)ccc21` [CBK291105], the figure is 89.2%.
As for `C#CCNS(=O)(=O)c1cccc(C(=O)NC2CCOc3ccccc32)c1` (stereo not drawn) [CBK305430], the figure is 111%; as for `CCC(=O)N1CCC(NC(=O)c2cnc(-c3ccncc3)s2)C1` (stereo not drawn) [CBK305550], 94.6%; as for `N/C(=N\OCC(=O)Nc1ccc(-n2cnnn2)cc1)c1nonc1N` [CBK265331], 104%.
